Data on 15 compounds can be found in patent publication US20240116926A1, “HETEROAROMATIC COMPOUNDS” (AstraZeneca AB, priority 2022, published 2024).

pIC50: −log10 of the molar value. Converted amounts (≈) assume the structure as drawn.

The subject of one data set is MCF7-Tead cell line. The data set can be described thus: TEAD reporter assay. The data set is classed as cell-based. The following applies: MCF7-Tead cells, luciferase activity after 24 hours. On the procedure: (§1) MCF7-Tead cell line was obtained from BPS BIOSCIENCE (catalog number 60618) and was maintained in DMEM containing 10% fetal calf serum, 2 mM glutamine, and 400 μg/ml G418. Cells were grown in a humidified incubator at 37° C. with 5% CO2. Cells were distributed to flat bottom white polystyrene TC treated 384 well plates at a density of 3,500 cells/well in 30 uL. Cells were incubated for 24 hours at 37° C. with 5% CO2. Cells were acoustically dosed using an Echo 555, with compounds serially diluted in 100% DMSO. Plates were incubated for an additional 24 hours. Cells were examined for luciferase activity through the addition of 30 μL Bright-Glo luciferase (Promega catalog number E2620). Plates were incubated for 10 minutes at room temperature and luminescence was read using Tecan plate reader. The data obtained with each compound was exported to […] software to perform curve fitting analysis.
A general note: A reporter such as luciferase makes a cellular process visible.

For data set [1], the system named is MCF7-Luciferase cell line. The data set can be described thus: Control reporter (MCF7-Luciferase). Type of data set: cell-based. The following applies: MCF7-Luciferase cells, luciferase activity after 24 hours. On the procedure: (iii) Control Reporter (MCF7-Luciferase)
as §1, with “MCF7-Luciferase” for “MCF7-Tead”, “BPS BIOSCIENCE” left out, “SC050-L)” for “60618)”, “glutamine.” for “glutamine, and 400 μg/ml G418.”, “μL.” for “uL.”

The target of another data set is TEAD4(217-434) (Homo sapiens (Human), UniProt Q15561). The data set can be described thus: TEAD4 FRET. The data set is classed as binding. As to conditions: depalmitoylated, biotinylated TEAD4(217-434), FAM labelled Probe A, 120 min at 25° C. On the procedure: Compounds were dosed with a final DMSO concentration of 1% (v/v). Compound IC50 values were assessed following a 10-point, half-log10 dilution schema starting at 100 μM compound concentration. Specifically, human TEAD protein from TEAD4(217-434) was cloned into an overexpression vector, expressed as an N-terminal HIS-TEV-Avi-tagged fusion protein in E coli, and subsequently purified, then protein was chemically depalmitoylated & biotinylated. The assay was performed in 384-well LV plates (384-well black, medium binding, PS, HIBASE, GREINER #784076) and run in the presence and absence of the compound of interest. Each well of 5 μL assay mixture contained 10 mM Tris-HCl (pH 7.5), 100 mM NaCl, 0.05 mM EDTA, 1 mM TECP, 1% DMSO, 0.03% Pluronic acid F127, 20 nM dePal Avi TEAD4 (217-434)-depalmitoylated & biotinylated protein, 0.8 nM Streptavidin Terbium cryptate (CisBio #610SATLB), 625 nM FAM labelled Probe A. Reactions were incubated at 25° C. for 120 min before reading on a PHERASTAR FSX Plate Reader (337 520 490 HTRF module required) (Supplier BMP).
TEAD4(217-434), sequence (Q15561 217-434): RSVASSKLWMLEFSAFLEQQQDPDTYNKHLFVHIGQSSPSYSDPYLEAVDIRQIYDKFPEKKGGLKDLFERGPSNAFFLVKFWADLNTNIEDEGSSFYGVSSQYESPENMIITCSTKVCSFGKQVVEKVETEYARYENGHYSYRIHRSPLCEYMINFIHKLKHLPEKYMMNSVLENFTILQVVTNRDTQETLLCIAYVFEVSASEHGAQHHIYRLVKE
The data file from the PHERAstar FSX contains both the acceptor (520 nm) and donor channels (490 nm) (“Channel A”=acceptor channel (520 nm), “Channel B”=donor channel (490 nm)). The ratio of the donor and acceptor (Channel A/Channel B) is calculated within Genedata Assay Analyzer.
Probe A is 3′,6′-dihydroxy-3-oxo-N-{8-[2-(5-{2-[4-(trifluoromethyl)anilino]phenyl}-2H-tetrazol-2-yl)acetamido]octyl}-3H-spiro[[2]benzofuran-1,9′-xanthene]-5-carboxamide;

The nature of data set [2]: Solubility (thermodynamic, shake-flask). The following applies: thermodynamic from solid; aqueous phosphate buffer (pH 7.4), 24 hours at 25° C. The data set is classed as physicochemical. The protocol:
The thermodynamic solubility of a research compound is measured under standard conditions. It is a shake-flask approach that uses 10 mM DMSO solutions which are supplied from the Compound Managements liquid store and is a high throughput method. The dried compounds are equilibrated in an aqueous phosphate buffer (pH 7.4) for 24 hours at 25° C., the portion with the dissolved compound is then separated from the remains. The solutions are analyzed and quantified using UPLC/MS/MS, QC-samples are incorporated in each assay-run to ensure the quality of the assay.

The nature of data set [3]: Protein binding measurements in human plasma (Hu PPB). The data set is classed as in vitro ADME. The following applies: equilibrium dialysis for 18 hours, fraction unbound. On the procedure:
The automated equilibrium dialysis assay in human plasma uses the RED (Rapid Equilibrium Dialysis) Device and sample handling. The assay generally runs over two to three days including delivery of results. After dialysis for 18 hours, plasma and buffer samples are prepared for analysis by liquid chromatography and mass spectrometry. Samples are generally tested in singlicates and quantified by LC/MSMS by using a 7-point calibration curve in plasma. The compounds are pooled together in plasma pools up to 10 compounds. Three reference compounds are used in each run, Propranolol, Metoprolol and Warfarin. Warfarin is used as a control in each pool and Propranolol and Metoprolol are placed randomly in each run. An in-house Excel macro is used for preparation of files for the robot and the mass spectrometer and is also used for the calculations of fraction unbound (fu %) in plasma.
On the technique in general: Equilibrium dialysis compares concentrations on both sides of a semipermeable membrane.

For orientation: pIC50 means the negative decadic logarithm of the IC50, by convention in mol/L. As usually defined, the solubility is the dissolved amount per volume that the medium holds. A high value points to a readily soluble substance. For the compound `C=CC(=O)N1C[C@H](F)[C@H](Nc2nnc(-c3ccc(C(F)(F)F)cc3)c3cccnc23)C1` [Example 2, 1-((3S,4R)-3-fluoro-4-((5-(4-(trifluoromethyl)phenyl)pyrido[2,3-d]pyridazin-8-yl)amino)pyrrolidin-1-yl)prop-2-en-1-one], the negative logarithm of the IC50 (pIC50) with MCF7-Tead cell line was 7.66; in data set [1] it was 4.89; at TEAD4(217-434) it was 7.25. Besides, in data set [2], the solubility at 24 h came out at 188 µM (≈ 81.1 µg/mL).
In the same order, the values of `C=CC(=O)N1C[C@@H](F)[C@H](Nc2nnc(-c3ccc(C(F)(F)F)cc3)c3ncccc23)C1` [Example 3, 1-((3R,4R)-3-fluoro-4-((8-(4-(trifluoromethyl)phenyl)pyrido[2,3-d]pyridazin-5-yl)amino)pyrrolidin-1-yl)prop-2-en-1-one] are 7.17, 4.56, 7.03 and 10 µM (≈ 4.31 µg/mL).
For the compound `C=CC(=O)N1C[C@@H](F)[C@H](Nc2nnc(-c3ccc(C(F)(F)F)cc3)c3cccnc23)C1` [Example 4, 1-((3R,4R)-3-fluoro-4-((5-(4-(trifluoromethyl)phenyl)pyrido[2,3-d]pyridazin-8-yl)amino)pyrrolidin-1-yl)prop-2-en-1-one], the pIC50 was 6.72 in the data set with MCF7-Tead cell line, 4.58 in data set [1] and 6.39 against TEAD4(217-434). The same compound had a solubility at 24 h in data set [2] of 230 µM (≈ 99.2 µg/mL).
Turning to `C=CC(=O)N1CC[C@H](Nc2nnc(-c3ccc(C(F)(F)F)cc3)c3ccccc23)C1` [Example 9, (S)-1-(3-((4-(4-(trifluoromethyl)phenyl)phthalazin-1-yl)amino)pyrrolidin-1-yl)prop-2-en-1-one], the negative logarithm of the IC50 (pIC50) in the data set with MCF7-Tead cell line was 7.22; in data set [1], less than 4.50. The “Hu PPB (% free)” value in data set [3] was found to be 4.7 % free. For the same compound, in data set [2], the solubility at 24 h was less than 0.8 µM.
In the case of `C=CC(=O)N1C[C@H](F)[C@H](Nc2nnc(-c3ccc(C(F)(F)F)cc3)c3ccccc23)C1` [Example 10, 1-((3S,4R)-3-fluoro-4-((4-(4-(trifluoromethyl)phenyl)phthalazin-1-yl)amino)pyrrolidin-1-yl)prop-2-en-1-one], the pIC50 is 7.82 with MCF7-Tead cell line, 4.81 in data set [1] and 7.49 against TEAD4(217-434). Further, the solubility at 24 h in data set [2] is 67 µM (≈ 28.8 µg/mL).
`C=CC(=O)N1C[C@@H](F)[C@H](Nc2nnc(-c3ccc(C(F)(F)F)cc3)c3ccccc23)C1` [Example 11, 1-((3R,4R)-3-fluoro-4-((4-(4-(trifluoromethyl)phenyl)phthalazin-1-yl)amino)pyrrolidin-1-yl)prop-2-en-1-one]: the pIC50 in the data set with MCF7-Tead cell line is 6.81; in data set [1], 4.99; against TEAD4(217-434), 7.48. This compound returned a solubility at 24 h in data set [2] of 9 µM (≈ 3.87 µg/mL).
In the same order, the values of `C=CC(=O)N1C[C@H](O)[C@H](Nc2nnc(-c3ccc(C(F)(F)F)cc3)c3ccccc23)C1` [Example 12, 1-((3S,4R)-3-hydroxy-4-((4-(4-(trifluoromethyl)phenyl)phthalazin-1-yl)amino)pyrrolidin-1-yl)prop-2-en-1-one] are 7.00, 4.63, 7.28 and 370 µM (≈ 159 µg/mL).
On to `CC#CC(=O)N1CC[C@H](Nc2nnc(-c3ccc(C(F)(F)F)cc3)c3ccccc23)C1` [Example 20, (S)-1-(3-((4-(4-(trifluoromethyl)phenyl)phthalazin-1-yl)amino)pyrrolidin-1-yl)but-2-yn-1-one], for which the pIC50 with MCF7-Tead cell line was 6.36; in data set [1] it was 4.65. For the same compound, the “Hu PPB (% free)” value in data set [3] came to 2.0 % free. The same compound had a solubility at 24 h in data set [2] of 33 µM (≈ 14 µg/mL).
Turning to `C=CS(=O)(=O)N1CC[C@H](Nc2nnc(-c3ccc(C(F)(F)F)cc3)c3ccccc23)C1` [Example 21, (S)-4-(4-(trifluoromethyl)phenyl)-N-(1-(vinylsulfonyl)pyrrolidin-3-yl)phthalazin-1-amine], the values for the pIC50 (in the data set with MCF7-Tead cell line; in data set [1]; on TEAD4(217-434)) were 6.03, 4.82 and 7.38, respectively. In data set [2], this compound registered a solubility at 24 h of 34 µM (≈ 15.2 µg/mL).
On the same counts, the results for `C=CC(=O)N1C[C@H](O)[C@H](Nc2ncc(-c3ccc(C(F)(F)F)cc3)c3ncccc23)C1` [Example 34, 1-((3S,4R)-3-hydroxy-4-((8-(4-(trifluoromethyl)phenyl)-1,6-naphthyridin-5-yl)amino)pyrrolidin-1-yl)prop-2-en-1-one] are 8.05, less than 4.50, 7.77 and 44 µM (≈ 18.9 µg/mL).
As to `C=CC(=O)N1C[C@H](O)[C@H](Nc2ncc(-c3ccc(C(F)(F)F)cn3)c3ncccc23)C1` [Example 35, 1-((3S,4R)-3-hydroxy-4-((8-(5-(trifluoromethyl)pyridin-2-yl)-1,6-naphthyridin-5-yl)amino)pyrrolidin-1-yl)prop-2-en-1-one], the pIC50 in the data set with MCF7-Tead cell line is 7.47; in data set [1] it was less than 4.50; at TEAD4(217-434) it was 7.10. The solubility at 24 h in data set [2] came out at 801 µM (≈ 344 µg/mL).
For the compound `C=CC(=O)N1CC[C@H](Nc2ncc(-c3ccc(C(F)(F)F)cn3)c3ncccc23)C1` [Example 38, (S)-1-(3-((8-(5-(trifluoromethyl)pyridin-2-yl)-1,6-naphthyridin-5-yl)amino)pyrrolidin-1-yl)prop-2-en-1-one], the negative-log IC50 (pIC50) with MCF7-Tead cell line is 7.47; in data set [1] it was less than 4.50. Further, the “Hu PPB (% free)” value in data set [3] turned out to be 12.5 % free. In data set [2], this compound displayed a solubility at 24 h of 191 µM (≈ 79 µg/mL).
In the same order, the values of `C=CC(=O)NC1(CNc2nnc(-c3ccc(C(F)(F)F)cc3)c3ccccc23)CC1` [Example 40, N-(1-(((4-(4-(trifluoromethyl)phenyl)phthalazin-1-yl)amino)methyl)cyclopropyl)acrylamide] are 6.45, less than 4.50, 1.6 % free and 3 µM (≈ 1.24 µg/mL).
Turning to `C=CC(=O)N1C[C@H](F)[C@H](Nc2ncc(-c3ccc(C(F)(F)F)cc3)c3nccnc23)C1` [Example 43, 1-((3S,4R)-3-fluoro-4-((8-(4-(trifluoromethyl)phenyl)pyrido[3,4-b]pyrazin-5-yl)amino)pyrrolidin-1-yl)prop-2-en-1-one], the pIC50 in the data set with MCF7-Tead cell line is 7.96; in data set [1] it was 4.88; at TEAD4(217-434), 7.92. Moreover, in data set [2], the solubility at 24 h came out at 16 µM (≈ 6.9 µg/mL).
As for `C=CC(=O)N1C[C@H](F)[C@H](Nc2ncc(-c3ccc(C(F)(F)F)cc3)c3ncccc23)C1` [Example 44, 1-((3S,4R)-3-fluoro-4-((8-(4-(trifluoromethyl)phenyl)-1,6-naphthyridin-5-yl)amino)pyrrolidin-1-yl)prop-2-en-1-one], the negative-log IC50 (pIC50) in the data set on MCF7-Tead cell line is 7.66; in data set [1], 4.74; against TEAD4(217-434), 7.80. The same compound showed a solubility at 24 h in data set [2] of 3 µM (≈ 1.29 µg/mL).
